The species entered for assay [1] is Rattus norvegicus. Kind of assay: Binding affinity against [3H]mazindol.
Assay [2] is filed under the species Rattus norvegicus. Kind of assay: Compound tested for inhibitory activity against [3H]dopamine uptake in synaptosomes from rat caudate nucleus. More on the design: species or system Brain.
Assay [3] is filed under the species Rattus norvegicus. Nature of the assay: Effect on cocaine inhibition of [3H]dopamine uptake at 200 uM.
For assay [4], the species on record is Rattus norvegicus. Nature of the assay: Effect on cocaine inhibition of [3H]dopamine uptake at 50 uM.
The species entered for assay [5] is Rattus norvegicus. Kind of assay: Effect on cocaine inhibition of [3H]-dopamine uptake at 500 uM.
The species named for assay [6] is Rattus norvegicus. Nature of the assay: Effect on cocaine inhibition of [3H]dopamine uptake.

Each structure is given as a SMILES string.

A word on the Ki: it is the equilibrium dissociation constant of an inhibitor or competing ligand from its target. Higher therefore signals weaker binding. For `COC(=O)[C@@H]1C2C[C@H](OC)[C@H](C[C@@H]1OC(=O)c1ccccc1)N2C` (mixture of isomers), the Ki worked out at 98 µM in assay [1] and 68 µM in assay [2].

Take `COC(=O)[C@@H]1C2[C@H](OC)C[C@H](C[C@@H]1OC(=O)c1ccccc1)N2C` (mixture of isomers): the Ki in assay [1] is 4.2 µM; in assay [2] it was 6.1 µM.

As a reminder, the IC50 is the concentration needed to halve the response being measured. Low readings indicate higher potency, high ones lower potency. With `COC(=O)[C@H]1C2[C@@H](OC)C[C@H](C[C@@H]1OC(=O)c1ccccc1)N2C` (mixture of isomers), the Ki in assay [1] worked out at 54 µM; in assay [2] it was 200 µM. Also, the values for the IC50 in assay [3] and in assay [4] were 0.936 µM and 0.501 µM, respectively.

Take `COC(=O)[C@H]1C2[C@H](OC)C[C@H](C[C@@H]1OC(=O)c1ccccc1)N2C` (mixture of isomers): the Ki in assay [1] came out at 45 µM; in assay [2], 110 µM.

Regarding `COC(=O)[C@H]1C2C[C@H](OC)[C@H](C[C@@H]1OC(=O)c1ccccc1)N2C` (mixture of isomers), the results for the Ki in assay [1] and in assay [2] were 190 µM and 510 µM, respectively. Also, it took 1.02 µM to reach half-maximal inhibition in assay [5] (IC50).

Regarding `COC(=O)[C@H]1[C@@H](OC(=O)c2ccccc2)C[C@@H]2CC[C@H]1N2C` [COCAINE], the inhibitory constant (Ki) is 0.28 µM in assay [1] and 0.32 µM in assay [2]. In assay [6], the IC50 was found to be 0.336 µM.

For `COC(=O)[C@H]1C2CCC(C[C@@H]1OC(=O)c1ccccc1)N2` (stereo partly drawn) [PSEUDOCOCAINE], the Ki worked out at 10.4 µM in assay [1] and 13.8 µM in assay [2].
